The results in this text go back to patent US20140187625A1, “RODENTICIDAL COMPOUND, COMPOSITION INCLUDING SAME AND USE FOR COMBATING RODENT PESTS” (priority 2011, published 2014).

SMILES strings stand for the structures. Where two headings read alike, the source gives them in different places.

In general, IC50 refers to the concentration that inhibits the measured activity by half.

In the assay the target is T1, activity with respect to vitamin K (vitamin K epoxide substrate), microsomal liver fractions from sensitive rats (Rattus norvegicus, UniProt Q6TEK4).
T1 construct: with 0.5 to 1 mg of microsomal liver fractions from sensitive rats; from tissue; host or cells: rat liver microsomes (sensitive rats)
T1 sequence (Q6TEK4 1-161): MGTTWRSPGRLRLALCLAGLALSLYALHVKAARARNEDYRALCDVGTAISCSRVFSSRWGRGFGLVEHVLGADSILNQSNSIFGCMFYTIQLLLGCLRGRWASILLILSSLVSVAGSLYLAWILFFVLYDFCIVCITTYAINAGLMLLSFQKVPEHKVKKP
Kind of assay: Inhibition of vitamin K epoxide reduction (activity with respect to vitamin K) in rat liver microsomes, IC50. The assay is classed as biochemical. On the procedure:
The operating protocol is the following. Incubation is carried out in a 200 mM Hepes buffer (pH 7.4) containing 150 mM KCl in the presence of a reducing agent, dithiothreitol (1 mM): • with 0.5 to 1 mg of microsomal liver fractions from sensitive rats, and the reaction substrate, • with […] of vitamin K epoxide in a final volume of 1 ml.
The mixture is incubated for 30 minutes at 37° C. and the reaction is stopped by addition of 4 ml of a mixture of isopropanol/hexane (1:1).
The reaction mixture is then centrifuged for 10 minutes at 3,000 revolutions per minute.
The organic phase is collected and then evaporated to dryness under nitrogen.
The dry residue is immediately taken up in 200 μl of isopropanol.
The vitamin K is then analyzed. The products are separated by reverse chromatography on a C8 column using a mobile phase composed of methanol and acetic acid under isocratic conditions (1 ml/min) at 45° C. Detection of the product is carried out by MS/MS with an APCI source in positive mode.
The identification criteria for vitamin K are the retention time and the production of fragment 187 from the initial ion 451.
The IC50 values are evaluated by non-linear to linear regression from the equation of non-competitive inhibition:
v=(vmax/(l+(I/Ki)))*(S/(Km+S))
where v represents the initial rate, I the concentration of anticoagulant, Km the Michaelis-Menten constant, S the concentration of substrate (mM), Vmax the maximum rate of reaction and Ki the inhibition constant.
For orientation: Microsomes from liver hold many membrane-bound enzymes, among them those of drug oxidation.

`CCCCCCCCCCCCCCCCCCc1c(O)c2ccccc2oc1=O` [VII] had an IC50 of 0.06 µM.

`CCCCCCCCCCCCc1c(O)c2ccccc2oc1=O` [IV] came in with an IC50 of 0.05 µM.

`CCCCCCCCCCc1c(O)c2ccccc2oc1=O` [III] returned an IC50 of 0.06 µM.

As for `CCCCCCCCCCCCCCc1c(O)c2ccccc2oc1=O` [V], the IC50 turned out to be 0.04 µM.

In turn, `CCCCCCc1c(O)c2ccccc2oc1=O` [VIII, reference compound] yielded an IC50 of over 0.2 µM.

`CCCCCCCCCCCCCCCCc1c(O)c2ccccc2oc1=O` [VI] came in with an IC50 of 0.04 µM.

Compound `CCCCCCCCc1c(O)c2ccccc2oc1=O` [II] showed an IC50 of 0.15 µM.

Turning to `CCCCCCCCCCCCCCCCCCCCc1c(O)c2ccccc2oc1=O` [IX, reference compound], the IC50 (microsomal liver fractions from sensitive rats, vitamin K epoxide substrate, 30 minutes at 37° C., pH 7.4, 1 mM dithiothreitol, read-out: IC50) was over 0.5 µM.
